pIC50: −log10 of the molar value. “Also recorded” adds a separate entry of the source.
What was measured:
[1] = In vitro microsomal metabolic stability, CD-1 mouse liver microsomes; format: in vitro ADME; conditions: for CLint scaled at 1 µM / microsomal CLint at 1 µM: CD-1, mouse, mouse liver microsomes, pH 7.2; for half-life at 1 µM: CD-1, pH 7.2, 0.5 mg/ml protein, NADPH; for half-life at 1 µM / Remaining (T = 60 min) / Remaining (T = NCF60 min): Mouse liver microsomes; for Remaining (T = 60 min): with NADPH; for Remaining (T = NCF60 min): without NADPH regenerating system; for Remaining (T = 60 min) / Remaining (T = NCF60 min): 60 min
Outline: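 Compounds at 1 μM incubated at 37° C with pooled CD-1 mouse or human liver microsomes (0.5 mg/mL protein) plus NADPH regenerating system in 50 mM potassium phosphate, pH 7.2, 3.3 mM MgCl2; sampled at 0–60 min, 60-min no-NADPH control. Parent loss by LC/MS/MS analyte/IS peak-area ratio, n=1.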

[2] = Pharmacokinetic studies in male CD-1 mice (plasma, IV and PO); format: in vivo, mouse; conditions: for clearance / Vd / bioavailability / half-life / Cmax / concentration at 8 h / concentration at 24 h: male; for clearance / Vd / bioavailability: CD-1, plasma, mouse; for clearance / Vd / half-life: IV 2 mg/kg; for clearance: read-out: CI(mL/min/kg), compounds clearance following IV administration; for Vd: read-out: Vdss (L/kg), volume of distribution following IV administration; for bioavailability: PO 10 mg/kg vs IV 2 mg/kg; for half-life / Cmax / concentration at 8 h / concentration at 24 h: CD-1; for half-life / Cmax / concentration at 8 h / concentration at 24 h / IV plasma half-life (T1/2): mouse plasma; for half-life: read-out: IV T1/2 (converted); for Cmax / concentration at 8 h / concentration at 24 h: PO 10 mg/kg; for concentration at 8 h: read-out: Compound concentration at 8-hour, PO administration; for concentration at 24 h: read-out: Compound concentration at 24-hour, PO administration
Protocol: Animal experiments were carried out at Wuxi AppTec. Male 6-8 weeks old CDI mice were obtained from Hilltop Labs. Following arrival at Wuxi AppTec, mice were housed in animal rooms with environmental control (temperature: 20 to 26° C.; lighting: 12 hour light/dark cycle). Mice were fed with certified pellet diet (Certified Rodent Diet #5002 by LabDiet). Water was provided to the animals ad libitum. Mice were acclimated to the facility for at least 3 days prior to starting experiments.
Appropriate amount of test article formulated in 5% ethanol, 5% Tween-80 and 5% PEG-400, 85% water. Formulation was prepared on the day of dosing and dosed within 2 hours following preparation of formulations. Dose accuracy was determined by LC-MS/MS.
Dose formulation(s) were administered following facility SOPs. Dose volumes were determined individually prior to dosing based on animals' body weights.
About 40 μL of blood samples were collected via peripheral veins (e.g. saphenous veins) at each pre-defined time point. Blood samples were collected into tubes containing K2EDTA as anti-coagulant and kept on ice until centrifugation.
Blood samples were centrifuged at 4° C., 3000 g for 5 min within half an hour of collection. Plasma was transferred into polypropylene tubes or 96-well plates, promptly frozen on dry ice and stored at −70±10° C. until analysis by LC-MS/MS.
Test compound concentration in mouse plasma was determined with LC-MS/MS method using a calibration curve with at least 6 non-zero calibration standards.
The pharmacokinetics (PK) of the test article was analyzed using Phoenix WinNonlin software (version 8.3) and non-compartmental analysis model. Derived PK parameters include, but not limited to, C0, CLp, Vdss, Cmax, Tmax, T1/2, AUC(0-t), AUC(0-inf), MRT(0-t), MRT(0-inf) and % F (bioavailability).

[3] = test system: S6K1 (Thr389) phosphorylation (mTORC1 activity) in wild-type (WT) 293T cells; assay: Inhibition of S6K1 (Thr389) phosphorylation in wild-type 293T cells (ELISA); format: cell-based, human; conditions: for extent of inhibition of S6K1 (Thr389) phosphorylation: with increasing concentrations
Outline: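 WT 293T cells in DMEM + 10% FBS, grown 24 h to ~80% confluence, then treated 2 h at 37 °C in duplicate with compounds over an 8–11-point range from 0.001 pM to 10 μM. DMSO vehicle served as negative control. Phospho-S6K1 (Thr389) measured by ELISA.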

CLint scaled at 1 µM [1] | microsomal CLint at 1 µM [1] | half-life at 1 µM [1] | Remaining (T = 60 min) [1] | Remaining (T = NCF60 min) [1] | clearance [2] | Vd [2] | bioavailability [2] | half-life [2] | Cmax [2] | concentration at 8 h [2] | concentration at 24 h [2] | IV plasma half-life (T1/2) [2] | Compound | pIC50 ([3]; Homo sapiens, HEK-293T, 2 h, wild-type 293T cells, 2 hours treatment) | fold lower potency compared with RAD001 (by IC50) ([3]; wild-type cells) | extent of inhibition of S6K1 (Thr389) phosphorylation ([3]; wild-type cells)
11.1 mL/min/kg | 2.81 µL/min/mg | 8.2 h | 113% | 99.6% | 0.176 mL/min/kg | 0.228 L/kg | 30.7% | 15.5 h | 12900 ng/mL | 10000 ng/mL | 4670 ng/mL | 15.5 h | COCCN(c1ccccc1)C1C[C@@H]2CC[C@@H](C)[C@@](O)(O2)C(=O)C(=O)N2CCCC[C@H]2C(=O)OC([C@H](C)CC2CC[C@@H](O)C(OC)C2)CC[C@H](C)/C=C(\C)C(O)C(OC)C(=O)[C@H](C)C[C@H](C)/C=C/C=C/C=C/1C (stereo partly drawn) [Compound 69, (3S,6S,7E,9R,10R,12R,14S,15E,17E,19E,23S,26R,27R,34aS)-9,27-dihydroxy-3-((R)-1-((1S,3R,4R)-4-hydroxy-3-methoxycyclohexyl)propan-2-yl)-10-methoxy-21-((2-methoxyethyl)(phenyl)amino)-6,8,12,14,20,26-hexamethyl-5,6,9,10,12,13,14,21,22,23,24,25,26,27,32,33,34,34a-octadecahydro-3H-23,27-epoxypyrido[2,1-c][1]oxa[4]azacyclohentriacontine-1,11,28,29(4H,31H)-tetraone] | 8.82 | 4 fold | near complete inhibition
76.9 mL/min/kg | 19.4 µL/min/mg | 1.19 h | 56% | 126% | 0.934 mL/min/kg | 0.433 L/kg | 26% | 5.85 h | 7220 ng/mL | 1960 ng/mL | 273 ng/mL | 5.85 h | CO[C@H]1C[C@@H]2CC[C@@H](C)[C@@](O)(O2)C(=O)C(=O)N2CCCC[C@H]2C(=O)O[C@H]([C@H](C)C[C@@H]2CC[C@@H](OCCO)[C@H](OC)C2)CC(=O)[C@H](C)/C=C(\C)[C@@H](O)[C@@H](OC)C(=O)[C@H](C)C[C@H](C)/C=C/C=C/C=C/1C [RAD001, everolimus, reference compound] |  |  | completely inhibit; also recorded: near complete inhibition
